Like-named read-outs stand apart in the source and are kept apart here.
Experiments:
Mdr2−/− mice [1] = assay: Routine serum biochemistry in bile acid-fed Mdr2−/− mice; format: in vivo; details: Mdr2−/− mice fed 0.5% w/w in diet for 4 weeks, mean ± SD, n = 5
Procedure: (§1) Two months-old Mdr2^−/− (a time point when sclerosing cholangitis is already fully established in these animals (Fickert, Zollner, et al. 2002) were either fed a diet supplemented with norUDCA (0.5%, w/w) or UDCA as a clinical comparator (0.5%, w/w) for 4 weeks and compared to standard-diet-fed Mdr2^−/− and wild type controls.
Serum samples were stored at −70° C. until analysis of alanine transaminase (ALT) and alkaline phosphatase (AP) by routine clinical chemistry performed on a Hitachi 717 analyzer (Boehringer Mannheim, Mannheim, Germany). For determination of total serum bile acid levels, a commercial 3-alpha-hydroxysteroid dehydrogenase assay (Ecoline S+; DiaSys, Holzheim, Germany) was used.

Mdr2−/− mice [2] = assay: Liver histology (H&E, Sirius red) in bile acid-fed Mdr2−/− mice; format: in vivo
Text: as §1
For conventional light microscopy, livers were fixed in 4% neutral buffered formaldehyde solution and embedded in paraffin. Sections (4 μm thick) were stained with H&E and Sirius red stain, respectively. The sections were coded and examined by a pathologist (H. D.) unaware of the animals' treatment.

Mdr2−/− mice [3] = assay: Bile flow and biliary excretion measurement; format: in vivo; details: Mdr2−/− mice fed 0.5% w/w for 4 weeks, mean ± SD; for Bile flow: normalized to liver weight
Procedure: as §1
Bile flow was determined gravimetrically and normalized to liver weight as described previously (Fickert, Zollner, et al. 2001). Biliary phospholipids concentration was determined using a commercially available kit (Phospholipid B; Wako, Neuss, Germany) according to the manufacture's instructions. Biliary cholesterol concentration was determined using a commercial available kit (Cholesterol liquicolor; Human, Wiesbaden, Germany) according to the manufacture's instructions. Biliary gluthathione (GSH) concentration was determined after protein precipitation in 5% metaphosphoric acid using the Glutathione Assay Kit (Calbiochem, San Diego, US) according to the manufacturer's instructions. Biliary bile acid concentration was analyzed using a 3-alpha-hydroxysteroid dehydrogenase assay (Ecoline St, DiaSys) according to the manufacturer's instructions.

Cyp2b10 = assay: Real-time PCR, relative expression of Cyp2b10; format: in vivo; details: liver mRNA, Mdr2−/− mice fed 0.5% w/w for 4 weeks; KO = 100; mean ± SD, n = 5
Procedure: as §1
(§2) RNA isolation, cDNA synthesis and Taqman® real time PCR were performed as described previously (Wagner, Fickert, et al. 2003). The following primers and 5′ FAM, 3′ TAMRA labeled probes were used: Col1a1 fwd: […] (Seq ID No. 35), Col1a1 rev: […] (Seq ID No. 36) and Col1a1 probe: […] (Seq ID No. 37); TIMP-1 fwd: […] (Seq ID No. 38), TIMP-1 rev: […] (Seq ID No. 39) and TIMP-1 probe: […] (Seq ID No. 40); MMP-2 fwd: […] (Seq ID No. 41), MMP-2 rev: […] (Seq ID No. 42) and MMP-2 probe: […] (Seq ID No. 43).

Cyp3a11 = assay: Real-time PCR, relative expression of Cyp3a11; format: in vivo; details: liver mRNA, Mdr2−/− mice fed 0.5% w/w for 4 weeks; KO = 100; mean ± SD, n = 5
Procedure: as §1, §2

Sult2a1 = assay: Real-time PCR, relative expression of Sult2a1; format: in vivo; details: liver mRNA, Mdr2−/− mice fed 0.5% w/w for 4 weeks; KO not detectable, KO + UDCA = 100; mean ± SD, n = 5
Procedure: as §1, §2

Ugt1a1 = assay: Real-time PCR, relative expression of Ugt1a1; format: in vivo; details: liver mRNA, Mdr2−/− mice fed 0.5% w/w for 4 weeks; KO = 100; mean ± SD, n = 5
Procedure: as §1, §2

Cyp7a1 = assay: Real-time PCR, relative expression of Cyp7a1; format: in vivo; details: liver mRNA, Mdr2−/− mice fed 0.5% w/w for 4 weeks; KO = 100; mean ± SD, n = 5
Procedure: as §1, §2

Mrp3 = assay: Real-time PCR, relative expression of Mrp3; format: in vivo; details: liver mRNA, Mdr2−/− mice fed 0.5% w/w for 4 weeks; KO = 100; mean ± SD, n = 5
Procedure: as §1, §2

Mrp4 = assay: Real-time PCR, relative expression of Mrp4; format: in vivo; details: liver mRNA, Mdr2−/− mice fed 0.5% w/w for 4 weeks; KO = 100; mean ± SD, n = 5
Procedure: as §1, §2

Mdr2−/− mice [4] = assay: Hepatic hydroxyproline content; format: in vivo; details: Mdr2−/− mice fed 0.5% w/w for 4 weeks, vs control diet-fed KO; FIG. 2
Procedure: as §1
To quantify liver fibrosis in our model hepatic hydroxyproline content was determined. The right liver lobe was homogenized in 6-normal HCl (200 mg liver tissue/4 ml HCl) and hydrolyzed at 110° C. for 16 h. After filtration 50 μl were added to 450 μl 2.2% NaOH dissolved in citrate-acetate buffer (50 g citric acid×H2O, 12 ml acidic acid, 120 g sodium acetate×3H2O, 34 g NaOH ad 1 liter distilled water; pH 6.0). After adding 250 μl perchloric acid and 12 min incubation at room temperature 250 μl p-dimethylaminobenzaldehyde solution was added and incubated at 60° C. for 20 min. Hydroxyproline content was measured at 565 nm using a hydroxyproline standard curve.

[5] = test system: portal neutrophils (CD11b-positive cells); assay: Immunohistochemistry for neutrophils marker CD-11b; format: in vivo; details: Mdr2−/− mice fed 0.5% w/w for 4 weeks, vs standard diet-fed KO; FIG. 3
Text: as §1
To quantify neutrophils CD 11b-positive cells were detected as described previously (Fickert, Fuchsbichler, et al. 2004) with the modification that binding of the antibody was detected using the ABC system (Dako) using AEC (Dako) as substrate. Number of neutrophils was calculated by counting positive cells in 20 portal fields in sections of 3 animals in each group.

VCAM = assay: Immunohistochemistry for vascular cell adhesion molecule (VCAM); format: in vivo; details: interlobular and lobular bile ducts, Mdr2−/− mice fed 0.5% w/w for 4 weeks; FIG. 4
Procedure: as §1
Immunohistochemistry for VCAM was performed on acetone fixed cryosections using the monoclonal rat anti CD106 (VCAM-1, dilution 1:30, PharMingen, San Diego, Calif., USA) and binding of the antibody was detected using the ABC system (Dako) using AEC (Dako) as substrate.

[6] = test system: hepatocytes and cholangiocytes; assay: Immunohistochemistry for proliferation marker Ki-67; format: in vivo; details: Mdr2−/− mice fed 0.5% w/w for 4 weeks; FIG. 5
Procedure: as §1
Immunohistochemistry for Ki-67 was performed on microwave-treated ([…] citrate buffer pH 6.0) paraffin sections (4 μm thick) using a polyclonal rabbit anti-Ki-67 antibody (dilution 1:750, Novocastra, Newcastle upon Tyne, UK). Binding of the antibody was detected using the ABC system (Dako) using AEC (Dako) as substrate. Number of proliferating hepatocytes was calculated by counting positive nuclei in 30 high power fields in sections of 3 animals in each group. Number of proliferating bile duct epithelial cells was calculated by counting positive nuclei in 20 portal fields in sections of 3 animals in each group.

collagen 1 and 3 mRNA = assay: Hepatic collagen 1 and 3 mRNA expression; format: in vivo; details: Mdr2−/− mice fed 0.5% w/w for 4 weeks
Procedure: as §1, §2

Ntcp, Oatp1, Bsep, Mrp2 = assay: mRNA expression of hepatocellular uptake and canalicular efflux systems; format: in vivo; details: Mdr2−/− mice fed 0.5% w/w for 4 weeks; data not shown
Procedure: as §1, §2

[7] = norUDCA metabolism and excretion in mice; format: in vivo
[8] = Estimated choleretic potency in mice; format: in vivo; details: relative to normal bile flow
[9] = cited from earlier work
[10] = humans, relative to normal bile flow; cited from earlier work
[11] = rats; cited from earlier work
[12] = Mdr2−/− mice fed 0.5% w/w for 4 weeks

Row | Compound | ALT (Mdr2−/− mice [1]) | AP (Mdr2−/− mice [1]) | Bili (Mdr2−/− mice [1]) | Biliary excretion of bicarbonate (Mdr2−/− mice [3]) | Biliary excretion of bile acids (Mdr2−/− mice [3]) | Biliary excretion of cholesterol (Mdr2−/− mice [3]) | Biliary excretion of glutathione (Mdr2−/− mice [3]) | Biliary excretion of phospholipids (Mdr2−/− mice [3]) | Bile flow (Mdr2−/− mice [3]) | Relative expression level of Cyp2b10 (Cyp2b10) | Relative expression level of Cyp3a11 (Cyp3a11) | Relative expression level of Sult2a1 (Sult2a1) | Relative expression level of Ugt1a1 (Ugt1a1) | Relative expression level of Cyp7a1 (Cyp7a1) | Relative expression level of Mrp3 (Mrp3) | Relative expression level of Mrp4 (Mrp4) | further results
1 | C[C@H](CCC(=O)O)[C@H]1CC[C@H]2[C@@H]3[C@@H](O)C[C@@H]4C[C@H](O)CC[C@]4(C)[C@H]3CC[C@]12C [UDCA, Ursodeoxycholic acid] | 576 ± 175 U/L | 399 ± 73 U/L | 0.55 ± 0.19 | 67.1 ± 10.0 nmol/g/min | 37.2 ± 7.6 nmol/g/min | 0.3 ± 0.1 nmol/g/min | 5.6 ± 1.1 nmol/g/min | 0.3 ± 0.03 nmol/g/min | 2.4 ± 0.3 µL/g/min | 751 ± 245 | 246 ± 72 | 100 ± 46 | 137 ± 55 | 9 ± 4 | 194 ± 55 | 357 ± 95 | Animals showing bile infarcts (Mdr2−/− mice [2]; [12]): 2 out of 5
2 | C[C@H](CC(=O)O)[C@H]1CC[C@H]2[C@@H]3[C@@H](O)C[C@@H]4C[C@H](O)CC[C@]4(C)[C@H]3CC[C@]12C [norUDCA, 3-alpha,7-alpha-dihydroxy-24-nor-5-beta-cholan-23-oic acid] | 165 ± 23 U/L | 162 ± 25 U/L | 0.23 ± 0.2 | 98.8 ± 14.6 nmol/g/min | 29.5 ± 2.3 nmol/g/min | 0.2 ± 0.04 nmol/g/min | 5.8 ± 1.2 nmol/g/min | 0.3 ± 0.1 nmol/g/min | 3.5 ± 0.3 µL/g/min | 1294 ± 418 | 241 ± 45 | 24157 ± 14948 | 304 ± 81 | 60 ± 30 | 207 ± 73 | 590 ± 193 | Ductular proliferation (Mdr2−/− mice [2]; [12]): virtually absent; Large bile duct disease (H&E staining) (Mdr2−/− mice [2]; Mdr2−/− mice fed 0.5% w/w for 4 weeks, vs control diet-fed KO, FIG. 1A): absent; Fibrosis with periductal collagen fibers (Sirius red staining) (Mdr2−/− mice [2]; Mdr2−/− mice fed 0.5% w/w for 4 weeks, vs control diet-fed KO, FIG. 1C): even more pronounced reduction; Sclerosing cholangitis (Mdr2−/− mice [2]; Mdr2−/− mice, model for PSC, within 4 weeks): cures sclerosing cholangitis; Hepatic hydroxyproline content (Mdr2−/− mice [4]): reduced to baseline levels; Number of portal neutrophils (CD11b-positive cells per 20 portal fields) / portal inflammation [5]: significantly reduced number of portal neutrophils; VCAM expression in bile duct epithelial cells (VCAM): significantly lower VCAM expression; Proliferation of bile duct epithelial cells / cholangiocytes (Ki-67 positive) [6]: significantly reduced the degree of hepatocyte and bile duct epithelial cell proliferation to nearly wild type control levels; Proliferation of hepatocytes (Ki-67 positive) [6]: significantly reduced the degree of hepatocyte and bile duct epithelial cell proliferation to nearly wild type control levels; Hepatic collagen 1 and 3 mRNA expression (collagen 1 and 3 mRNA): significant reduction; mRNA expression of hepatocellular uptake (Ntcp, Oatp1) and canalicular efflux (Bsep, Mrp2) systems (Ntcp, Oatp1, Bsep, Mrp2): no significant effects; Major metabolite of norUDCA ([7]; mice): glucuronide; Renal excretion of norUDCA ([7]; mice): considerable renal excretion; Bile acid sulfates and glucuronides in urine ([7]; norUDCA fed Mdr2−/− mice): appearance of bile acid sulfates and glucuronides in urine; Estimated choleretic potency [8]: about three times above that of normal bile flow; Renal excretion of norUDCA ([9]; humans (men)): considerable renal excretion; Major metabolite of norUDCA ([9]; humans): glucuronide; Estimated choleretic potency [10]: about three times above that of normal bile flow; Induced bile flow [11]: 0.16 mL/min/kg

— US8951995B2, “Use of 24-nor-UDCA” (Medizinische Universitat Graz, priority 2005, dated 2015)
